In one data set the test system is utering weight. In words: Estrogenic effect in immature female mice. It is filed as in vivo. Particulars: for estrogenic activity, 17β-estradiol and its 3-acetate compared with each other: same kind of experiment. Here is the method: (§1) The androgenic and estrogenic activities, as described below, are determined with established methods (see e.g. Dorfman, R.: Methods in Hormone Research, vol. II, Acad. Press, New York and London 1962, pp. 93 and 275).
The estrogenic effect is assayed in immature female mice. The animals receive the compounds once daily for three consecutive days, and on the 4th day the utering weight is determined.

For data set [1] the following is noted: acute intraperitoneal toxicity in mice; cited from earlier work.
The test system of data set [2] is Ehrlich ascites tumour, ELD hyperdiploid (46 chromosomes). In words: Ehrlich ascites tumour test (LD50, ED50, therapeutic index). The format is in vivo, SPF NMRI mice. As to conditions: for anti-tumor activity: additional compounds, result in words; for T.I. (LD50/ED50): Ehrlich ascites, mice, i.p.; for ED50: Mus musculus, Ehrlich, ip. In short, it runs like this: (§2)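 SPF NMRI mice implanted i.p. with 2 × 10^6 Ehrlich ascites (ELD hyperdiploid) cells and given a single i.p. dose the next day; killed on day 8. ED50 = dose halving tumour weight versus controls, LD50 = dose lethal to 50%; T.I. = LD50/ED50.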

The subject of data set [3] is Walker carcinosarcoma 256. The experiment in a line: Walker carcinosarcoma 256 test. The format is in vivo, Sprague Dawley rats. As to conditions: for Lethality: died/used animals. From the text:
(§3) The experimental design and the interpretation of the results have been in accordance with the standards set by the CCNSC (Cancer Chemotherapy Reports, January 1959 and December 1962), and by the DR&D (Cancer Chemotherapy Reports, September 1972, Vol. 3, No. 2).
(§4) The way of administration is by the intraperitoneal route (i.p.) in each case.
Walker carcinosarcoma 256
Experimental animals: Sprague Dawley rats.
Tumour implant: Tumour pieces with 2-4 mm diameter, subcutaneously.
Therapy: Daily injections i.p. for 5 days starting on the day following implantation.
Termination: The animals are killed on the 9th day.
Evaluation: Weights of tumours of test animals are compared with those of control animals. The differences, in per cent of weights of tumours of control animals, give per cent tumour inhibition.
The lethality is given as the number of animals which died in the experiment/the number of animals used in the experiments.

The nature of another data set: in vivo. Also on record: species or system SPF Wistar rats. As to conditions: rat, in vivo, ip; one injection i.p., rats; dose causing 50 percent lethality. In short, it runs like this: (§5)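 Therapeutic index (LD50/ED50) was derived from tumour weight against controls at day-8 sacrifice, with ED50 the dose giving 50% tumour reduction. Rats (SPF Wistar) bore 5 × 10^6 hepatoma cells implanted intraperitoneally. A single i.p. injection followed on the day after implantation.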

The next data set relates to Hepatoma AH 130. In words: in vivo. Also noted: species or system SPF Wistar rats. As to conditions: for T.I. (LD50/ED50): Hepatoma AH 130, rats, i.p.; for ED50: Rattus norvegicus, ip, 192 h, one injection i.p. day after implantation, dose causing 50 percent reduction of tumour size; for anti-tumor activity: additional compounds, result in words. In a few lines:
as §5

A short description of data set [4]: Ehrlich ascites tumour test (LD50, ED50, therapeutic index). Particulars: mouse, in vivo, ip; one injection i.p., mice; dose causing 50 percent lethality. It is filed as in vivo, SPF NMRI mice. In a few lines:
as §2

In data set [5] the test system is Lymphatic leukemia L 1210. In words: Lymphatic leukemia L 1210 test. It is filed as in vivo, CDF1 (C3H×DBA/2)F1 mice. As to conditions: for Effect %: survival time as percentage of control; for Weight change v: vs control up to the 5th day; for effect on L 1210: result in words, dose not given.
Text: as §3, §4
Lymphatic leukemia L 1210
Experimental animals: CDF1 (C3H×DBA/2)F1 mice.
Tumour implant: 10^5 tumour cells i.p.
Therapy: One injection i.p. on the day following implantation.
Evaluation: a) The survival time of the test animals (t) expressed as the percentage of that of control animals (c).
b. Weight change in the test animals (T) compared with that of the control animals (c) up to the 5th day.
c. The mortality rate must not exceed 35% in the test animals on the 5th day of therapy.

For a further data set, the system named is ventral prostate. The experiment in a line: Androgenic effect in castrated male rats. The format is in vivo. Particulars: subcutanous and intraperitoneal administration, 7 days. Here is the method: as §1
The androgenic effect is assayed in castrated male rats. Beginning two weeks after castration the animals are given one daily injection of the compound for 7 days. The weight of the ventral prostate is determined on the 8th day.

The nature of data set [6]: Thymolytic effect according to A. C. Hilger (assay 8). Particulars: in vivo. An excerpt:
Thymolytic effect according to A. C.

Setting [7] is: one injection i.p. day after implantation, dose causing 50 percent reduction of tumour size, read-out: ED50.

Like-named read-outs stand apart in the source and are kept apart here.

As to `CC(=O)Oc1ccc2c(c1)CC[C@@H]1[C@@H]2CC[C@]2(C)[C@@H](O)CC[C@@H]12` [17β-estradiol-3-acetate], the “estrogenic activity, 17β-estradiol and its 3-acetate compared with each other” value with utering weight is reported as “about the same estrogenic activity”.

Regarding `C[C@]12CC[C@@H]3c4ccc(O)cc4CC[C@H]3[C@@H]1CC[C@@H]2O` [17β-estradiol, estra-1,3,5(10)-triene-3,17β-diol], in the data set on utering weight, the “estrogenic activity, 17β-estradiol and its 3-acetate compared with each other” value was “about the same estrogenic activity”.

Regarding `O=NN(CCCl)C(=O)Oc1ccccc1` [Phenyl], the median lethal dose (LD50) in data set [1] was 3 to 7 mg/kg.

For `CC(=O)Oc1ccc2c(c1)CC[C@@H]1[C@@H]2CC[C@]2(C)[C@@H](OC(=O)N(CCCl)N=O)CC[C@@H]12` [estradiol-3-acetate-17β-N-(2-chloroethyl)-N-nitroso carbamate], the anti-tumor activity entry in data set [2] was “exhibit anti-tumor activity”. Moreover, the “estrogenic effect compared with 17β-estradiol and 17β-estradiol-3-acetate” value in the data set with utering weight (given orally, subcutanously or intraperitoneally) is reported as “about 10 times weaker”. Further, in [3] (5×250 mg/kg i.p.), the Tumour inhibition % stood at 74% and the Lethality is listed as 1/8. Further, the LD50 in “in vivo” is above 1000 mg/kg. Also, in the data set with Hepatoma AH 130, the “T.I. (LD50/ED50)” value is reported as above 10 and it took a dose of 96 mg/kg to reach the 50% effect level (ED50).

Turning to `C1CN1c1nc(N2CC2)nc(N2CC2)n1` [Triethylene-melamine, reference compound], the “T.I. (LD50/ED50)” value in data set [2] was determined as 2.6. Besides, the 50% effective dose (ED50) in data set [2] (setting [7]) was determined as 1.03 mg/kg. The 50% lethal dose (LD50) in data set [4] is 2.7 mg/kg.

Turning to `C[C@]12CC[C@H]3[C@@H](CCC4=CC(=O)CC[C@@H]43)[C@@H]1CC[C@@H]2OC(=O)N(CCCl)N=O` [19-nortestosterone-17β-N-(2-chloroethyl)-N-nitroso carbamate], in data set [2], the anti-tumor activity entry is on record as “exhibit anti-tumor activity”. In addition, in [5] (1×31 mg/kg i.p.), the Mortality is listed as 0/40, the Effect % stood at 142% and the Weight change v is on record as -1.0 g. In data set [3] (5×63 mg/kg i.p.), the Tumour inhibition % turned out to be 65% and the Lethality is recorded as 1/8. Also, the median lethal dose (LD50) in “in vivo” is 150 mg/kg. In addition, in the data set with Hepatoma AH 130, the “T.I. (LD50/ED50)” value came to 300 and it took a dose of 0.5 mg/kg to reach the 50% effect level (ED50).

As for `C[C@]12CC[C@H](OC(=O)N(CCCl)N=O)C[C@@H]1CC[C@@H]1[C@@H]2CC[C@]2(C)C(=O)CC[C@@H]12` [epiandrosterone-3β-N-(2-chloroethyl)-N-nitroso carbamate], the anti-tumor activity entry in data set [2] was “exhibit anti-tumor activity”. Besides, in data set [5] (1×250 mg/kg i.p.), the Mortality is reported as 0/20, the Effect % is given as 130% and the Weight change v is -1.6 g. For the same compound, in [3] (5×125 mg/kg i.p.), the Tumour inhibition % is 47% and the Lethality is 0/8. For the same compound, the LD50 in “in vivo” was above 1000 mg/kg. Moreover, in the data set with Hepatoma AH 130, the “T.I. (LD50/ED50)” value is above 5.000 and the median effective dose (ED50) came out at 0.2 mg/kg.

On to `O=C(O)CCCc1ccc(N(CCCl)CCCl)cc1` [Chlorambucil, reference compound], for which the LD50 in data set [4] stood at 33 mg/kg.

With `C[C@]12CC[C@H](OC(=O)N(CCCl)N=O)CC1=CC[C@@H]1[C@@H]2CC[C@]2(C)C(=O)CC[C@@H]12` [dehydroepiandrosterone-3β-N-(2-chloroethyl)-N-nitroso carbamate], the “androgenic effect compared with testosterone” value in the data set on ventral prostate is on record as “somewhat weaker androgenic effect”. In addition, the “T.I. (LD50/ED50)” value in data set [2] was above 102. For the same compound, the ED50 in data set [2] (setting [7]) amounted to 98 mg/kg. This compound displayed an LD50 in data set [4] above 1000 mg/kg. Besides, in data set [5] (1×500 mg/kg i.p.), the Mortality is 0/40, the Effect % worked out at 143% and the Weight change v is on record as -2.5 g. Also, in data set [3] (5×250 mg/kg i.p.), the Tumour inhibition % came to 66% and the Lethality is on record as 0/16. The compound also showed an LD50 in the data set “in vivo” above 1000 mg/kg. Further, in the data set with Hepatoma AH 130, the ED50 is 0.4 mg/kg.

On to `C[C@]12CC[C@H]3[C@@H](CCC4=CC(=O)CC[C@@]43C)[C@@H]1CC[C@@H]2OC(=O)N(CCCl)N=O` [testosterone-17β-N-(2-chloroethyl)-N-nitroso carbamate], for which, in the data set with ventral prostate, the “androgenic effect compared with testosterone” value is “about the same androgenic effect as testosterone”. For the same compound, in data set [2], the anti-tumor activity result is reported as “exhibit anti-tumor activity”. Also, in data set [5] (1×125 mg/kg i.p.), the Mortality was 0/40, the Effect % is on record as 125% and the Weight change v is -1.8 g. In addition, in data set [3] (5×250 mg/kg i.p.), the Tumour inhibition % is 64% and the Lethality is 0/8. The compound further came in with an LD50 in “in vivo” above 1000 mg/kg. Moreover, in the data set on Hepatoma AH 130, the “T.I. (LD50/ED50)” value was above 100 and it took a dose of 8 mg/kg to reach the 50% effect level (ED50).

As to `C[C@]12C=CC(=O)C=C1CC[C@@H]1[C@@H]2[C@@H](O)C[C@@]2(C)[C@H]1CC[C@]2(O)C(=O)COC(=O)N(CCCl)C(=O)N(CCCl)N=O` [prednisolone-21-/N^2,N^4-bis (2-chloroethyl)-N^4-nitroso allophanate/], the anti-tumor activity entry (in data set [2]; in the data set on Hepatoma AH 130) was “exhibit anti-tumor activity” each time. Besides, the “effect on L 1210” value in data set [5] is “show a significant effect”. Besides, the “thymolytic activity compared with prednisolone acetate” value in data set [6] is recorded as “about the same activity as prednisolone acetate”.

As for `C[C@]12C=CC(=O)C=C1CC[C@@H]1[C@@H]2[C@@H](O)C[C@@]2(C)[C@H]1CC[C@]2(O)C(=O)COC(=O)N(CCCl)N=O` [prednisolone-21-N-(2-chloroethyl)-N-nitroso carbamate], the anti-tumor activity entry (in data set [2]; in the data set on Hepatoma AH 130) was “exhibit anti-tumor activity” in each case. Besides, the “effect on L 1210” value in [5] was “show a significant effect”. The “thymolytic activity compared with prednisolone acetate” value in [6] is reported as “about the same activity as prednisolone acetate”.

As to `O=P1(N(CCCl)CCCl)NCCCO1` (stereo not drawn) [Cyclofosfamid, reference compound], in data set [2], the “T.I. (LD50/ED50)” value turned out to be 7.6 and the median effective dose (ED50) amounted to 62 mg/kg. The same compound displayed an LD50 in [4] of 470 mg/kg.

On to `S=P(N1CC1)(N1CC1)N1CC1` [Triethylene-thiophosphoramide, reference compound], for which the “T.I. (LD50/ED50)” value in data set [2] stood at 1.5. The 50% effective dose (ED50) in [2] (setting [7]) is 15 mg/kg. In [4], this compound yielded a 50% lethal dose (LD50) of 22 mg/kg.

As to `CS(=O)(=O)OCCCCOS(C)(=O)=O` [Busulfan, reference compound], the “T.I. (LD50/ED50)” value in data set [2] stood at 1.3. In [2] (setting [7]), the ED50 came to 55 mg/kg. In data set [4], this compound gave a median lethal dose (LD50) of 71 mg/kg.

In the case of `C[C@]12CC[C@@H](OC(=O)N(CCCl)N=O)C[C@@H]1CC[C@@H]1[C@@H]2CC[C@]2(C)C(=O)CC[C@@H]12` [androsterone-3α-N-(2-chloroethyl)-N-nitroso carbamate], the anti-tumor activity result in [2] is “exhibit anti-tumor activity”. In data set [5] (1×125 mg/kg i.p.), the Mortality is recorded as 0/20, the Effect % came out at 153% and the Weight change v is -2.4 g. In [3] (5×250 mg/kg i.p.), the Tumour inhibition % turned out to be 82% and the Lethality is 0/8. In “in vivo”, this compound had a 50% lethal dose (LD50) above 1000 mg/kg. Moreover, in the data set with Hepatoma AH 130, the “T.I. (LD50/ED50)” value is above 100 and it took a dose of 10 mg/kg to reach the 50% effect level (ED50).

For `CCCCOC(=O)N(CCCl)N=O` [CH3 (CH2)2 CH2 --], in data set [1], the LD50 was 11 to 15 mg/kg.

Consider `O=NN(CCCl)C(=O)Oc1ccc2ccccc2c1` [β-Naphthyl], for which, in data set [1], the LD50 was 42 mg/kg.

Broadly, the LD50 is the dose at which mortality reaches 50%. One may read the ED50 as the midpoint of the dose-response relation.
